Reference: publication PMC7115614 (European Journal of Medicinal Chemistry, 2019)

Legend:
[1] = test system: human embryonic lung (HEL) cells; conditions: Table 5
MCF-7 cells = experiment: Annexin V assay for apoptosis/necrosis detection; format: cell-based, human; conditions: MCF-7, after 48 h, versus control
hydroxy-HIF-1α (Pro564) = experiment: Western blot, hydroxy-HIF-1α in MCF-7 cells; format: cell-based, human; conditions: 0.08 μM, 24 and 48 h
NOS2 = experiment: Western blot, NOS2 in MCF-7 cells; format: cell-based, human; conditions: 0.08 μM, 24 and 48 h

SMILES | Cytotoxicity Cell morphology (MCC) [1] | also measured
O=c1[nH]c(=O)n([C@H]2C[C@H](O)[C@@H](CO)O2)cc1/C=C/Br [Brivudin, reference compound] | >300 μM | –
Nc1ccn(C[C@@H](CO)OCP(=O)(O)O)c(=O)n1.O.O [Cidofovir, reference compound] | >300 μM | –
C[Si](C)(C)c1cn(C[C@H](O)[C@H]2OC(=O)C(OCc3ccccc3)=C2OCc2ccccc2)nn1 [Compound 8b, 2,3-O,O-dibenzyl-6-deoxy-6-(4-trimethylsilyl-1,2,3-triazol-1-yl)-L-ascorbic acid] | 100 μM | –
O=C1O[C@H]([C@@H](O)Cn2cc(C3CC3)nn2)C(OCc2ccccc2)=C1OCc1ccccc1 [Compound 8k, 2,3-O,O-dibenzyl-6-[4-cyclopropyl-1,2,3-triazol-1-yl]-6-deoxy-L-ascorbic acid] | 100 μM | –
CCCCc1cn(C[C@H](O)[C@H]2OC(=O)C(OCc3ccccc3)=C2OCc2ccccc2)nn1 [Compound 8l, 2,3-O,O-dibenzyl-6-(4-butyl-1,2,3-triazol-1-yl)-6-deoxy-L-ascorbic acid] | 20 μM | –
CCCCCCCCCCc1cn(C[C@H](O)[C@H]2OC(=O)C(OCc3ccccc3)=C2OCc2ccccc2)nn1 [Compound 8m, 2,3-O,O-dibenzyl-6-(4-decyl-1,2,3-triazol-1-yl)-6-deoxy-L-ascorbic acid] | 20 μM | increase in late apoptotic cell population (MCF-7 cells): 24.7%; increase of necrotic cell populations (MCF-7 cells): 7.92%; hydroxylated HIF-1α levels (hydroxy-HIF-1α (Pro564)): significant increase; levels of NOS2 (NOS2): decreased levels
CC(C)(C)c1cn(C[C@H](O)[C@H]2OC(=O)C(OCc3ccccc3)=C2OCc2ccccc2)nn1 [Compound 8n, 2,3-O,O-dibenzyl-6-(4-tert-butyl-1,2,3-triazol-1-yl)-6-deoxy-L-ascorbic acid] | 100 μM | –
O=C1O/C(=C\Cn2cc(-c3cc(F)cc(F)c3)nn2)C(OCc2ccccc2)=C1OCc1ccccc1 [Compound 10d] | 100 μM | –
O=C1O/C(=C\Cn2cc(-c3ccc(Br)cc3)nn2)C(OCc2ccccc2)=C1OCc1ccccc1 [Compound 10e] | >100 μM | –
Cc1ccc(-c2cn(C/C=C3\OC(=O)C(OCc4ccccc4)=C3OCc3ccccc3)nn2)cc1 [Compound 10f] | 20 μM | –
COc1ccc(-c2cn(C/C=C3\OC(=O)C(OCc4ccccc4)=C3OCc3ccccc3)nn2)cc1 [Compound 10g] | >100 μM | –
COc1ccccc1-c1cn(C/C=C2\OC(=O)C(OCc3ccccc3)=C2OCc2ccccc2)nn1 [Compound 10h] | 100 μM | –
CC(C)(C)c1cn(C/C=C2\OC(=O)C(OCc3ccccc3)=C2OCc2ccccc2)nn1 [Compound 10n] | 100 μM | –
O=C1O/C(=C\Cn2cc(CCO)nn2)C(OCc2ccccc2)=C1OCc1ccccc1 [Compound 10p] | >100 μM | –
